# Measured values taken from patent EP2873675A1, “Peptide-based peroxidase inhibitors and methods of using same” (The Medical College of Wisconsin, Inc., priority 2013, dated 2015).
# Residues, ends and D or L forms follow the SMILES beside them.
# How the values were obtained:
# SCD mice [1] = experiment: Vasodilatation of pressurized facialis arteries from treated SCD mice; type: in vivo; details: IP 0.3 mg/kg/d for 3 weeks; response to ACh; untreated SCD ∼20%
# Method: Murine Model of Sickle Cell Disease. Mice treated with KYC in vivo. SCD mice were treated with KYC (intraperitoneal injection: IP 0.3 mg/kg/d) or with PBS (IP 100 µL) for 3 weeks. Anesthesia was induced with Ketamine (100mg/kg) + Xylazine (10mg/kg) cocktail (ip) and then sacrificed by exsanguination. Facialis arteries were atraumatically dissected and maintained in cooled MOPS solution (in mM: NaCl 145, KCL 4.7, CaCl2 2, NaH2PO4 1.2, MgSO4, 1.2, pyruvate 2, EDTA 0.02, MOPS 3.0, and glucose 5.0, at pH 7.4). Vessels were then submerged in a MOPS bath, mounted on MOPS-containing glass capillary tubes, internally pressurized (60 mmHg), and warmed to 37°C. Internal vascular diameters were measured with a calibrated video-microscope (Boeckeler). After the vessel was allowed to acclimate to 37°C (approximately 30 min), the diameter was measured and recorded (Dmax). […] A control dose-response curve using acetylcholine (ACh, 10^-7 - 10^-4 M) was performed and vessel diameter recorded. […] Vasodilation to papaverine (2.0X10^-4 M) was determined after all treatments to ensure smooth muscle viability. Vasodilation was calculated as a percent of maximal vessel diameter change.
# Vasodilatation. […] Physiological responses to increasing concentrations of acetylcholine (ACh) were determined by videomicroscopy as previously described.
# [2] = tested on: facialis arteries from non-treated SCD mice; experiment: Vasodilatation of facialis arteries from untreated SCD mice, treated ex vivo in the vessel bath; details: 1.5 µg/ml added to vessel bath, 20 min
# Method: For vessels treated with KYC (ex-vivo): Using untreated SCD mice, the vessels were isolated/ cannulated the same as for the mice treated with KYC in vivo. After the control dose-response curve using acetylcholine (ACh, 10^-7 - 10^-4 M) and subsequent washing, the vessels were incubated with KYC 1.5 µg/ml for 20 minutes, pre-constricted, and exposed to acetylcholine (ACh, 10^-7 - 10^-4 M). Vasodilation to papaverine (2.0X10^-4 M) was determined after all treatments to ensure smooth muscle viability. Vasodilation was calculated as a percent of maximal vessel diameter change.
# SCD mice [3] = experiment: Vessel wall thickness of facialis arteries from SCD mice; type: in vivo; details: 0.3 mg/kg/d, 3 weeks; after papaverine; P=0.10
# Method: Vessel Wall Thickness. After completing the vasodilatation studies, the pressurized vessels were maximally dilated by addition of papaverine (10^-4 mol/L, 4 min), and outside and inside diameters recorded. An index of wall thickness was calculated using the following formula; ([outside diameter/inside diameter]/2)/outside diameter, as previously described.
# C57BL/6J mice = experiment: Acute lung injury: pulmonary retention of Q-dot labeled EMPs; type: in vivo; details: pretreatment and treatment of EMP-injected mice
# Method: KYC Inhibits Acute Lung Injury. Inflammation and sepsis induce the release of endothelial cell microparticles (EMPs). Increased production of EMPs is hypothesized to play a causal role in the mechanisms mediating acute lung injury (ALI). To test this hypothesis, the inventors incubated human umbilical vein endothelial cells with PAI-1, which is well-recognized for inducing endothelial cells to generate EMPs. The EMPs were collected by ultracentrifugation, resuspended in physiological saline solution and then labeled with Q-dots. The Q-dot labeled EMPs were counted and then injected into C57BL/6J mice to achieve a final concentration of 100,000 EMPs/mL of blood. Mice were pretreated with phosphate buffered saline (Fig. 6) or KYC and then were injected with Q-dot labeled EMPs alone or Q-dot labeled EMPs plus KYC (Fig. 6).
smiles,measurement,setting,value
"CC(=O)N[C@@H](CCCCN)C(=O)N[C@@H](Cc1ccc(O)cc1)C(=O)N[C@@H](CS)C(N)=O [KYC, N-acetyl Lysyltyrosylcysteine amide] (Ac-Lys-Tyr-Cys-NH2)","vasodilatation, percent of maximal vessel diameter change",SCD mice [1],~60%
same,vasodilatation in response to ACh,[2],did not increase vasodilatation
same,vessel wall thickness,SCD mice [3],reduces vessel wall thickness
same,pulmonary retention of Q-dot labeled EMPs,C57BL/6J mice,dramatically decreases pulmonary retention
